Test results as given in patent US8993542B2, “Methods of treating viral infections” (priority 2008, dated 2015).
pIC50: −log10 of the molar value.

Experiments:
[1] = tested on: HIV-1IIIB; assay: Two-drug combination antiviral assay in CEM cells (CPE), MacSynergy II; format: cell-based; conditions: in combination with CMX157, CEM-SS cells, 95% confidence
[2] = tested on: HIV; assay: microbe, parasite or virus in culture; format: cell-based

## Nc1nc(NC2CC2)c2ncn([C@H]3C=C[C@@H](CO)C3)c2n1 [ABC, abacavir]
[1]
  Antagonism Volume, Result 1: −35.8 nM^2 %, μM^2 % or nMμM %
  Antagonism Volume, Result 2: −2.32 nM^2 %, μM^2 % or nMμM %
  Antagonism Volume, Result 3: −12.1 nM^2 %, μM^2 % or nMμM %
  Mean Antagonism Volume (n = 3): −16.7 nM^2 %, μM^2 % or nMμM %
  Mean Synergy Volume (n = 3): 14.9 nM^2 %, μM^2 % or nMμM %
  Synergy Volume, Result 1: 25.1 nM^2 %, μM^2 % or nMμM %
  Synergy Volume, Result 2: 0 nM^2 %, μM^2 % or nMμM %
  Synergy Volume, Result 3: 19.7 nM^2 %, μM^2 % or nMμM %
[2]; Human immunodeficiency virus 1, PANEL 1, WT
  pIC50: 5.82
[2]; Human immunodeficiency virus 1, PANEL 2, WT
  pIC50: 5.78
[2]; Human immunodeficiency virus 1, PANEL 3, 6 TAMs, no 184
  pIC50: 5.10
[2]; Human immunodeficiency virus 1, PANEL 6, 6 TAMs + 184
  pIC50: 4.85
[2]; Human immunodeficiency virus 1, PANEL 7, 184V
  pIC50: 5.32
[2]; Human immunodeficiency virus 1, PANEL 9, 69ins, no 184
  pIC50: 4.49
[2]; Human immunodeficiency virus 1, PANEL 12, 69ins + 184
  pIC50: 4.33
[2]; Human immunodeficiency virus 1, PANEL 14, 65R, no 184
  pIC50: 5.24
[2]; Human immunodeficiency virus 1, PANEL 15, 65R + 184V
  pIC50: 4.93
[2]; Human immunodeficiency virus 1, PANEL 17, L74V
  pIC50: 5.47
[2]; Human immunodeficiency virus 1, PANEL 19, L74V + M184V
  pIC50: 5.03
[2]; Human immunodeficiency virus 1, PANEL 26, 151M, no 184
  pIC50: 4.46
[2]; Human immunodeficiency virus 1, PANEL 28, 151M + 184
  pIC50: < 4.28
[2]; Human immunodeficiency virus 1, PANEL 29, L74V − SDM
  pIC50: 5.48
[2]; Human immunodeficiency virus 1, PANEL 30, M184V − SDM
  pIC50: 5.33
[2]; Human immunodeficiency virus 1, PANEL 31, K65R − SDM
  pIC50: 5.34
[2]; Human immunodeficiency virus 1, PANEL 33, T215Y
  pIC50: 5.44
[2]; Human immunodeficiency virus 1, PANEL 34, T215Y + M184V
  pIC50: 5.12
[2]; Human immunodeficiency virus 1, PANEL 35, M41L + T215Y
  pIC50: 5.47
[2]; Human immunodeficiency virus 1, PANEL 37, M41L + T215Y + M184V
  pIC50: 5.02
[2]; Human immunodeficiency virus 1, PANEL 38, M41L + L210W + T215Y
  pIC50: 5.30
[2]; Human immunodeficiency virus 1, PANEL 39, M41L + L210W + T215Y
  pIC50: 5.38
[2]; Human immunodeficiency virus 1, PANEL 40, M41L + L210W + T215Y + M184V
  pIC50: 5.09
[2]; Human immunodeficiency virus 1, PANEL 41, M41L + L210W + T215Y + M184V
  pIC50: 5.05
[2]; Human immunodeficiency virus 1, PANEL 42, D67N + K70R
  pIC50: 5.61
[2]; Human immunodeficiency virus 1, PANEL 44, D67N + K70R + T215F + K219E + M184V
  pIC50: 5.11
[2]; Human immunodeficiency virus 1, PANEL 45, L210W + T215Y
  pIC50: 5.44
[2]; Human immunodeficiency virus 1, PANEL 46, D67N + K70E
  pIC50: 5.62
[2]; Human immunodeficiency virus 1, PANEL 47, D67N + K70E + M184V
  pIC50: 5.30
[2]; Human immunodeficiency virus 1, PANEL 48, K70E + M184V
  pIC50: 4.98
[2]; PANEL 1, WT
  IC50 Fold Change: 0.86
[2]; PANEL 2, WT
  IC50 Fold Change: 0.94
[2]; PANEL 3, 6 TAMs, no 184
  IC50 Fold Change: 4.43
[2]; PANEL 6, 6 TAMs + 184
  IC50 Fold Change: 7.91
[2]; PANEL 7, 184V
  IC50 Fold Change: 2.69
[2]; PANEL 9, 69ins, no 184
  IC50 Fold Change: 18.00
[2]; PANEL 12, 69ins + 184
  IC50 Fold Change: 26.00
[2]; PANEL 14, 65R, no 184
  IC50 Fold Change: 3.20
[2]; PANEL 15, 65R + 184V
  IC50 Fold Change: 6.64
[2]; PANEL 17, L74V
  IC50 Fold Change: 1.89
[2]; PANEL 19, L74V + M184V
  IC50 Fold Change: 5.21
[2]; PANEL 26, 151M, no 184
  IC50 Fold Change: 19.00
[2]; PANEL 28, 151M + 184
  IC50 Fold Change: >29.2959
[2]; PANEL 29, L74V − SDM
  IC50 Fold Change: 1.85
[2]; PANEL 30, M184V − SDM
  IC50 Fold Change: 2.64
[2]; PANEL 31, K65R − SDM
  IC50 Fold Change: 2.57
[2]; PANEL 33, T215Y
  IC50 Fold Change: 2.06
[2]; PANEL 34, T215Y + M184V
  IC50 Fold Change: 4.29
[2]; PANEL 35, M41L + T215Y
  IC50 Fold Change: 1.89
[2]; PANEL 37, M41L + T215Y + M184V
  IC50 Fold Change: 5.41
[2]; PANEL 38, M41L + L210W + T215Y
  IC50 Fold Change: 2.80
[2]; PANEL 39, M41L + L210W + T215Y
  IC50 Fold Change: 2.36
[2]; PANEL 40, M41L + L210W + T215Y + M184V
  IC50 Fold Change: 4.60
[2]; PANEL 41, M41L + L210W + T215Y + M184V
  IC50 Fold Change: 5.02
[2]; PANEL 42, D67N + K70R
  IC50 Fold Change: 1.40
[2]; PANEL 44, D67N + K70R + T215F + K219E + M184V
  IC50 Fold Change: 4.36
[2]; PANEL 45, L210W + T215Y
  IC50 Fold Change: 2.05
[2]; PANEL 46, D67N + K70E
  IC50 Fold Change: 1.36
[2]; PANEL 47, D67N + K70E + M184V
  IC50 Fold Change: 2.85
[2]; PANEL 48, K70E + M184V
  IC50 Fold Change: 5.88
